These results are taken from US6812236B2, “Compounds useful in therapy” (Pfizer Inc., priority 1999, dated 2004).

The structures appear in SMILES notation. Bounds are passed on as bounds.

The assay deals with T1, mu opioid receptor (Canis lupus familiaris, UniProt A0A0F6TMT6).
T1 construct: Laboratory bred beagles were used as a source of dog brain tissue; from tissue; host or cells: beagle dog brain without cerebellum, washed membrane pellet
T1 sequence (A0A0F6TMT6 1-401): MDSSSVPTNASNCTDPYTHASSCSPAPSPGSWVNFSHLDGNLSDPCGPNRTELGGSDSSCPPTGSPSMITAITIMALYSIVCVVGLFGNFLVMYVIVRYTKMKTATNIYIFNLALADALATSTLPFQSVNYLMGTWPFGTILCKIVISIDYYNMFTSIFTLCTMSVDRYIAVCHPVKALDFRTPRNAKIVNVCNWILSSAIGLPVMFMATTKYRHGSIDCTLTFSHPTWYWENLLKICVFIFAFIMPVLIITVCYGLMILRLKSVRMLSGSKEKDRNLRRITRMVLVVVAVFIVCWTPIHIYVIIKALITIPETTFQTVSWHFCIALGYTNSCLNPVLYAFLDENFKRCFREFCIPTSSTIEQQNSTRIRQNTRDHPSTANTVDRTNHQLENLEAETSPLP
The assay can be described thus: mu opioid receptor binding assay in dog brain membranes (3H-DAMGO displacement). Particulars: dog brain tissue, read-out: Ki values for the μ receptor. How it is done:
The assays were conducted by the following procedure.
Laboratory bred beagles were used as a source of dog brain tissue. Animals were euthanised, their brains removed and the cerebellum discarded. The remaining brain tissue was sectioned into small pieces approximately 3 g in weight and homogenised in 50 mM Tris pH 7.4 buffer at 4° C. using a Kinematica Polytron™ tissue homogeniser. The resulting homogenate was centrifuged at 48,400× g for 10 minutes and the supernatant discarded. The pellet was resuspended in Tris buffer and incubated at 37° C. for 10 minutes. Centrifugation, resuspension and incubation steps were repeated twice more, and the final pellet was resuspended in Tris buffer and stored at −80° C. Membrane material prepared in this manner could be stored for up to four weeks prior to use.
For mu assays, increasing concentrations of experimental compound, (5×10^−12 to 10^−5 M), Tris buffer and ^3H ligand, ([D-Ala^2,N-Me-Phe^4,Gly-ol^5]-Enkephalin, DAMGO), were combined in polystyrene tubes. The reaction was initiated by the addition of tissue, and the mixture was incubated at room temperature for 90 minutes. The reaction was terminated by rapid filtration using a Brandel Cell Harvester™ through Betaplate™ GF/A glass fibre filters pre-soaked in 50 mM Tris pH 7.4, 0.1% polyethylenimine buffer. The filters were then washed three times with 0.5 mL ice-cold Tris pH 7.4 buffer. Washed filters were placed in bags and Starscint™ scintillant added. Bags containing the filters and scintillant were heat sealed and counted by a Betaplate™ 1204 beta counter.
Duplicate samples were run for each experimental compound and the data generated was analysed using IC50 analysis software in Graphpad Prism. Ki values were calculated using Graphpad Prism according to the following formula: […]
where IC50 is the concentration at which 50% of the ^3H ligand is displaced by the test compound and KD is the dissociation constant for the ^3H ligand at the receptor site.
With `CCNC(=O)c1cccc(C2(C)CCN(CCCCC(C)C)CC2C)c1` (stereo not shown) [Example 18, 1-(5-Methylhexyl)-3,4-dimethyl-4-(3-(N-ethyl)-amidophenyl)piperidine], the Ki was at most 4 µM. The figure for `CCCCCCN1CCC(C)(c2cccc(C(=O)NCC)c2)C(C)C1` (stereo not shown) [Example 8, 1-Hexyl-3,4-dimethyl-4-(3-(N-ethyl)amidophenyl)-piperidine] is at most 4 µM; for `CCNC(=O)c1cccc(C2(C)CCN(CCCCCC#N)CC2C)c1` (stereo not shown) [Example 20, 1-(5-Cyanopentyl)-3,4-dimethyl-4-(3-(N-ethyl)-amidophenyl)piperidine] it is at most 4 µM; for `CCCCCCN1CCC(C)(c2cccc(C(=O)NC(C)C)c2)C(C)C1` (stereo not shown) [Example 4, 1-Hexyl-3,4-dimethyl-4-(3-(N-isopropyl)amidophenyl)-piperidine] it is at most 4 µM.
